Measurements as given in US20250122183A1 (Pfizer Inc., priority 2023, published 2025).
One block for each molecule: values may come before it.

Experiments:
Assay type in all cases: biochemical
KAT6A Full length enzyme = KAT6A Full length enzyme (Homo sapiens (Human), UniProt Q92794); experiment: KAT6A assay (SAMDI-MS acetylation of H3 1-21 peptide); conditions: Morrison equation fit; replicate number in parentheses; read-out: KAT6A Ki (nM) (replicate number)
[1] = biological target: KAT7+JADE1+EAF6+ING5 4 protein complex (Homo sapiens (Human), UniProt O95251); experiment: KAT7 JADE1 assay (SAMDI-MS acetylation of H3 1-21 peptide); conditions: Morrison equation fit; replicate number in parentheses; read-out: KAT7 JADE1 Ki (nM) (replicate number)
KAT5 Full length enzyme = KAT5 Full length enzyme (Homo sapiens (Human), UniProt Q92993); experiment: KAT5 assay (SAMDI-MS acetylation of H4 1-21 peptide); conditions: Morrison equation fit; replicate number in parentheses; read-out: KAT5 Ki (nM) (replicate number)
KAT8 Full length enzyme = KAT8 Full length enzyme (Homo sapiens (Human), UniProt Q9H7Z6); experiment: KAT8 assay (SAMDI-MS acetylation of H3 1-21 peptide); conditions: Morrison equation fit; replicate number in parentheses; read-out: KAT8 Ki (nM) (replicate number)
KAT8 Full length enzyme, sequence (Q9H7Z6 whole entry): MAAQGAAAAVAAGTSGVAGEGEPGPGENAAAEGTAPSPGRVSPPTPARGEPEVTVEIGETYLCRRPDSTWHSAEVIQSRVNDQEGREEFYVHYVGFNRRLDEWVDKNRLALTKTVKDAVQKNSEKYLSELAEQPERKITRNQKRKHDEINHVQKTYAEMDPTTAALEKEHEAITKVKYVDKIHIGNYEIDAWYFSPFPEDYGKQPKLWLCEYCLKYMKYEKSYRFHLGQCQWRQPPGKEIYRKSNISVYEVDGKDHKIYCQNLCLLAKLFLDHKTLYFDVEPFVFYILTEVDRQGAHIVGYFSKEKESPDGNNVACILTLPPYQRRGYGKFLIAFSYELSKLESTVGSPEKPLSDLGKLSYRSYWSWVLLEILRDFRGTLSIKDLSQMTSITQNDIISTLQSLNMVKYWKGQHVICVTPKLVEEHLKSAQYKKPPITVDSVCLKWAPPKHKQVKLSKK

KAT6A Full length enzyme, sequence (Q92794 other isoform, or with tags, fused parts or gaps): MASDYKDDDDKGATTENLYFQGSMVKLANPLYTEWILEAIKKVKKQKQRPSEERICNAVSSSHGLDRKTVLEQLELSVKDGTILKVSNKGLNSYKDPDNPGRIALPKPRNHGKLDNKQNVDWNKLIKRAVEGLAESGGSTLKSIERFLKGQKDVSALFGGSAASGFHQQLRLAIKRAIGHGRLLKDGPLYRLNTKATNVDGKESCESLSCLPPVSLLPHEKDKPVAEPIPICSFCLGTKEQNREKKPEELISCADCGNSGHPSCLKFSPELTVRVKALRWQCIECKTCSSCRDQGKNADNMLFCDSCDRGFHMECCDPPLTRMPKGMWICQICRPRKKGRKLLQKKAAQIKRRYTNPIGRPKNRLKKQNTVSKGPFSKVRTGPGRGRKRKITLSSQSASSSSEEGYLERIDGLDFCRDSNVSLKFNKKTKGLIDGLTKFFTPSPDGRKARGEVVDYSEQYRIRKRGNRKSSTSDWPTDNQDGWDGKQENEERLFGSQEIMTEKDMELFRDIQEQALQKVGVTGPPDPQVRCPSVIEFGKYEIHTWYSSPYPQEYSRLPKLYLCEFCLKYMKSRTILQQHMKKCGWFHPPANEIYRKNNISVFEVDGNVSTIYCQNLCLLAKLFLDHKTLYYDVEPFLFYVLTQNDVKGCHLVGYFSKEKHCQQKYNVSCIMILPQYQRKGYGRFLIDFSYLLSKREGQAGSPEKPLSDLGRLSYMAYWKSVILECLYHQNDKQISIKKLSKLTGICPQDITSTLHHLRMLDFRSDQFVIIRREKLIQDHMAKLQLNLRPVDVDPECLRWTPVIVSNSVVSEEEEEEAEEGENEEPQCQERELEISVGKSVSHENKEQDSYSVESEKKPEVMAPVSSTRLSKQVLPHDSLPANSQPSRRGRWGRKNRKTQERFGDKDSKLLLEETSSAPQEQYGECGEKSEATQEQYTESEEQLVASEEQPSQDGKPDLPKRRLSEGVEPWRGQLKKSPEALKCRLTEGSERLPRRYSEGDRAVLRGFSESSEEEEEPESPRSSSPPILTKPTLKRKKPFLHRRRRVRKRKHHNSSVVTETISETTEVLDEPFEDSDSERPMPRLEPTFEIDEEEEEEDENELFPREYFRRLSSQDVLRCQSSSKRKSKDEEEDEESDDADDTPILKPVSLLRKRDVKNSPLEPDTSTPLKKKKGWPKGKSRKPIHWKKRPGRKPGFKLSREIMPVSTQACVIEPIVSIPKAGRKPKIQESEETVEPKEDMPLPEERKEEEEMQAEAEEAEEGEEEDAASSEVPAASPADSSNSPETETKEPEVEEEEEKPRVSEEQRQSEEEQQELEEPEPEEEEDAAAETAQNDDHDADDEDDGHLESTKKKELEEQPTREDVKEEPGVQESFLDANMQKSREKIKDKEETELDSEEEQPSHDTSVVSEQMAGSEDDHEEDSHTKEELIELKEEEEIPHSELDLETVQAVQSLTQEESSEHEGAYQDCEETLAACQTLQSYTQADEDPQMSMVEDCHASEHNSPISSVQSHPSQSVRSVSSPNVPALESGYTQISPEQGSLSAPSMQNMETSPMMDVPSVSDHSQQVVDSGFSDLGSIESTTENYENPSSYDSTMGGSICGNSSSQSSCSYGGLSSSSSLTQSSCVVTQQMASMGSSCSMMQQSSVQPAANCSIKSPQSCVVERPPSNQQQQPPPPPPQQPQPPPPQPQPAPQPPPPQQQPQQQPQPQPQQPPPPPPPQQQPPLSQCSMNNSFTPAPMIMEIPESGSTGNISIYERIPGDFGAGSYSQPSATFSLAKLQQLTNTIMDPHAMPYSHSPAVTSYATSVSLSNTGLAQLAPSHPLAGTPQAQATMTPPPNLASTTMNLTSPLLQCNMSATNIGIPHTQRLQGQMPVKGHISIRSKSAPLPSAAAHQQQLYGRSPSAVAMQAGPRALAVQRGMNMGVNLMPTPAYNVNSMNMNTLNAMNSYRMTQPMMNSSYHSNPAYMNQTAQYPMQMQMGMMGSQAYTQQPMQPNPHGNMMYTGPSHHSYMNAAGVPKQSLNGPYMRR
KAT5 Full length enzyme, sequence (Q92993 whole entry): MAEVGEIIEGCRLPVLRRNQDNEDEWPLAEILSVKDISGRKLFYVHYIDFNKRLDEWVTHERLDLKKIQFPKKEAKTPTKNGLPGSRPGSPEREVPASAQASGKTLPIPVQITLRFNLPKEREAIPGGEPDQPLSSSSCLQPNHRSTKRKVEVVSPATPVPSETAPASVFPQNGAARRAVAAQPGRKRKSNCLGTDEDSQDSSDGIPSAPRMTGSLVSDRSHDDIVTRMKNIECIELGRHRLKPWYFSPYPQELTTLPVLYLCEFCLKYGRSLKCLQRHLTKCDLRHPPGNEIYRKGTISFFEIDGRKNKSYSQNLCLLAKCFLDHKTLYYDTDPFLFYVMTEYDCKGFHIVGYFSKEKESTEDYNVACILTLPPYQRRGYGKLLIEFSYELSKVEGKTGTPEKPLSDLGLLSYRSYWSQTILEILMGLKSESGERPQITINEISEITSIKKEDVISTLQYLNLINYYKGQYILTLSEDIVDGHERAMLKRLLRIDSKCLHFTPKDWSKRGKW

SMILES: COc1cc2c(NS(=O)(=O)c3c(OC)cccc3OC)noc2cc1Nc1cc([C@H](C)O)n[nH]1 (single isomer, unassigned) [Example 86, N-(6-{[3-(1-hydroxyethyl)-1H-pyrazol-5-yl]amino}-5-methoxy-1,2-benzoxazol-3-yl)-2,6-dimethoxybenzene-1-sulfonamide]
Ki (KAT6A Full length enzyme): 8.9 nM
Ki [1]: 552 nM
Ki (KAT5 Full length enzyme): 1280 nM
Ki (KAT8 Full length enzyme): > 13000 nM

SMILES: COc1cc2c(NS(=O)(=O)c3c(OC)cccc3OC)noc2cc1Nc1cc([C@@H](C)O)n[nH]1 (single isomer, unassigned) [Example 87, N-(6-{[3-(1-hydroxyethyl)-1H-pyrazol-5-yl]amino}-5-methoxy-1,2-benzoxazol-3-yl)-2,6-dimethoxybenzene-1-sulfonamide]
Ki (KAT6A Full length enzyme): 23.5 nM
Ki [1]: 1230 nM
Ki (KAT5 Full length enzyme): 1800 nM
Ki (KAT8 Full length enzyme): > 13000 nM

SMILES: COc1cc2c(NS(=O)(=O)c3c(OC)cccc3OC)noc2cc1Nc1cc2n(n1)CC[C@@H]2C (single isomer, unassigned) [Example 89, 2,6-dimethoxy-N-(5-methoxy-6-{[4-methyl-5,6-dihydro-4H-pyrrolo[1,2-b]pyrazol-2-yl]amino}-1,2-benzoxazol-3-yl)benzene-1-sulfonamide]
Ki (KAT6A Full length enzyme): 3 nM
Ki [1]: 39.3 nM
Ki (KAT5 Full length enzyme): 168 nM
Ki (KAT8 Full length enzyme): > 12200 nM

SMILES: COc1cc2c(NS(=O)(=O)c3c(OC)cccc3OC)noc2cc1Nc1cc2n(n1)CC[C@H]2C (single isomer, unassigned) [Example 90, 2,6-dimethoxy-N-(5-methoxy-6-{[4-methyl-5,6-dihydro-4H-pyrrolo[1,2-b]pyrazol-2-yl]amino}-1,2-benzoxazol-3-yl)benzene-1-sulfonamide]
Ki (KAT6A Full length enzyme): 3.4 nM
Ki [1]: 62.4 nM
Ki (KAT5 Full length enzyme): 251 nM
Ki (KAT8 Full length enzyme): > 13000 nM

SMILES: COc1cc2c(NS(=O)(=O)c3c(OC)cc(C4CCCCO4)cc3OC)noc2cc1Nc1cc(C2CC2)n[nH]1 (single isomer, unassigned) [Example 143, N-{6-[(3-cyclopropyl-1 H-pyrazol-5-yl)amino]-5-methoxy-1,2-benzoxazol-3-yl}-2,6-dimethoxy-4-(oxan-2-yl)benzene-1-sulfonamide]
Ki (KAT6A Full length enzyme): 1.1 nM
Ki [1]: 9.6 nM
Ki (KAT5 Full length enzyme): 44.3 nM
Ki (KAT8 Full length enzyme): 436 nM

SMILES: COc1cc2c(NS(=O)(=O)c3c(OC)cc(C4CCN(C)C4)cc3OC)noc2cc1Nc1cc(C2CC2)n[nH]1 (single isomer, unassigned) [Example 148, N-{6-[(3-cyclopropyl-1 H-pyrazol-5-yl)amino]-5-methoxy-1,2-benzoxazol-3-yl}-2,6-dimethoxy-4-(1-methylpyrrolidin-3-yl)benzene-1-sulfonamide]
Ki (KAT6A Full length enzyme): 1.1 nM
Ki [1]: 3.6 nM
Ki (KAT5 Full length enzyme): 78.1 nM
Ki (KAT8 Full length enzyme): 575 nM

SMILES: COc1cc2c(NS(=O)(=O)c3c(OC)cc(C4CN(C)CCO4)cc3OC)noc2cc1Nc1cc(C2CC2)n[nH]1 (single isomer, unassigned) [Example 152, N-{6-[(3-cyclopropyl-1 H-pyrazol-5-yl)amino]-5-methoxy-1,2-benzoxazol-3-yl}-2,6-dimethoxy-4-(4-methylmorpholin-2-yl)benzene-1-sulfonamide]
Ki (KAT6A Full length enzyme): 0.7 nM
Ki [1]: 4.1 nM
Ki (KAT5 Full length enzyme): 105 nM
Ki (KAT8 Full length enzyme): 1160 nM

SMILES: COc1cc2c(NS(=O)(=O)c3c(OC)cc(C4CN(C)CCO4)cc3OC)noc2cc1Nc1cc(C2CC2)n[nH]1 (single isomer, unassigned) [Example 153, N-{6-[(3-cyclopropyl-1 H-pyrazol-5-yl)amino]-5-methoxy-1,2-benzoxazol-3-yl}-2,6-dimethoxy-4-(4-methylmorpholin-2-yl)benzene-1-sulfonamide]
Ki (KAT6A Full length enzyme): 0.8 nM
Ki [1]: 5.7 nM
Ki (KAT5 Full length enzyme): 17.4 nM
Ki (KAT8 Full length enzyme): 571 nM

Ki (KAT6A Full length enzyme): 1.7 nM
Ki [1]: 6.5 nM
Ki (KAT5 Full length enzyme): 94.8 nM
Ki (KAT8 Full length enzyme): 3370 nM
SMILES: COc1cc2c(NS(=O)(=O)c3c(OC)cc(C4COCCN4C)cc3OC)noc2cc1Nc1cc(C2CC2)[nH]n1 (single isomer, unassigned) [Example 180, N-{6-[(5-cyclopropyl-1 H-pyrazol-3-yl)amino]-5-methoxy-1,2-benzoxazol-3-yl}-2,6-dimethoxy-4-(4-methylmorpholin-3-yl)benzene-1-sulfonamide]
